Tested on: cardiac myocytes of acutely explanted rabbit heart
Experiment: Adenovirus gene transfer in Langendorff-perfused explanted rabbit heart; β-galactosidase staining of isolated myocytes
Experimental: Adenovirus vectors. Adβgal contained the E. coli lac Z gene driven by the human cytomegalovirus (CMV) immediate early promoter. Virus stocks were expanded as previously described in Graham F L, Prevec L: Manipulation of adenovirus vectors, in Murray E J (ed): Methods in molecular biology. Clifton, N.J., Humana, 1991, pp 109-128, aliquoted in small volumes, and stored in phosphate-buffered saline (PBS) with 10% sucrose at −80° C. Viral titers were determined by the average of two plaque assays performed using a traditional method as described in Methods in molecular biology, supra.
Statistical Analysis. Unless otherwise stated, all experiments were performed in triplicate and the data are presented as mean ±s.d. Statistical significance was determined at the 5% level using the unpaired Student's t-test.
Baseline conditions for the Langendorff-perfusion experiments included a coronary flow rate of 30 ml/min, and perfusion with Krebs solution containing 1.0 mmol/L Ca^2+ and 1.0×10^8 pfu/ml of Adβgal at 37° C. All infections occurred in Krebs solution.
Acutely explanted rabbit heart (New Zealand White; 2-3 kg total body weight) were employed for gene transfer tests of this Example 1 and the following Example 2. The rabbits received heparin anticoagulation (1000 units IV) prior to pentobarbital (50 mg/kg IV). […]

NCCc1c[nH]c2ccc(O)cc12 [serotonin]
change in percentage of infected myocytes by supplemental agent (agent perfused to enhance microvascular permeability, versus baseline): significant increase | percentage of infected myocytes (pretreatment 500 ml normal Krebs with 10^-5 M agent over 15 minutes, agent also present during Adβgal infection): 77.8±2.3%
